Results on three compounds are retold here after PMC6150172, “Synthesis of Oxadiazole-Thiadiazole Hybrids and Their Anticandidal Activity” (Molecules : A Journal of Synthetic Chemistry and Natural …, 2017).

≈ marks a conversion by molar mass, not a printed value.

A short description of one data set: MTT cytotoxicity test. It counts as cell-based. Particulars: mouse, NIH/3T3 mouse embryonic fibroblast cells, NIH/3T3 cell line, read-out: IC50 (cytotoxic activity). The protocol:
The MTT assay was carried out to determine the cytotoxicity of the synthesized compounds as previously reported in [21]. NIH/3T3 mouse embryonic fibroblast cells (ATCC® CRL-1658™, London, UK) were incubated according to the supplier’s references and seeded at 1 × 10^4 cells into each well of 96-well plates. After this process, cells were treated with the compounds at concentrations ranging from 800 µg/mL to 0.78 µg/mL. By means of the following formula, percent inhibition was evaluated for each concentration.
Background: Tetrazolium dyes change colour on reduction, which living cells bring about.

The test system of a further data set is four Candida species. Briefly: Antifungal broth microdilution assay, four Candida species taken together. Format: cell-based. Particulars: range over four Candida strains. The protocol:
(§1) The anticandidal effect of compounds 6a–6s were screened in accord with the EUCAST definitive (EDef 7.1) method. Ketoconazole was employed as a reference drug. The in vitro growth inhibitory activity of the compounds were tested against C. albicans (ATCC 24433), C. glabrata (ATCC 90030), C. krusei (ATCC 6258) and C. parapsilosis (ATCC 22019). The results were obtained as MIC values and MIC readings were accomplished twice for each chemical agent. After incubating overnight at 37 °C, the fungal strains were sustained in Roswell Park Memorial Institute (RPMI) medium.
(§2) Adjustment of the inoculum density to a 0.5 McFarland turbidity standard was carried out by using a spectrophotometer. The resulting inoculum suspension contained 0.5 × 10^5–2.5 × 10^5 cfu/mL for fungi. The two-fold serial dilutions technique were applied and the test was carried out in Mueller–Hinton broth and RPMI at pH7 and the test was performed for medium at pH7. The last well on the microplates containing only inoculated broth and the last well with no growth of microorganism represent controls and the MIC50 in μg/mL, respectively. DMSO was used as solvent. Further dilutions of the compounds and standard drugs in the RPMI medium were prepared in the required quantities at contcentrations of 800, 400, 200, 100, 50, 25, 12.5, 6.25, 3.125, 1.5625 and 0.78 µg/mL. After a 24 h incubation of the completed plates, resazurin (20 µg/mL) was added into each well in order to observe the fungal growth. […] Each experiment in antifungal assay was performed twice.
For orientation: In broth dilution the organism is exposed to a series of concentrations in liquid medium.

The subject of the next data set is C. glabrata (ATCC 90030). Briefly: Antifungal broth microdilution assay (EUCAST EDef 7.1), C. glabrata. It counts as cell-based. Particulars: Nakaseomyces glabratus, ATCC90030, read-out: Minimum inhibitory concentration (MIC50). The protocol: as §1, §2
The subject of a further data set is C. albicans (ATCC 24433). The data set can be described thus: Antifungal broth microdilution assay (EUCAST EDef 7.1), C. albicans. It counts as cell-based. Particulars: Candida albicans, ATCC24433, read-out: Minimum inhibitory concentration (MIC50). The protocol: as §1, §2
The test system of data set [1] is C. parapsilosis (ATCC 22019). Briefly: Antifungal broth microdilution assay (EUCAST EDef 7.1), C. parapsilosis. Format: cell-based. Particulars: Lodderomyces parapsilosis, ATCC22019; C. parapsilopsis; read-out: Minimum inhibitory concentration (MIC50). The protocol:
as §1, §2

The test system of the next data set is C. krusei (ATCC 6258). Briefly: Antifungal broth microdilution assay (EUCAST EDef 7.1), C. krusei. Particulars: Pichia kudriavzevii, ATCC6258, read-out: Minimum inhibitory concentration (MIC50). It counts as cell-based. Here is the method: as §1, §2
The subject of data set [2] is ergosterol biosynthesis in C. krusei. Briefly: Ergosterol level quantification by LC-MS-MS in C. krusei. Format: cell-based. Particulars: Pichia kudriavzevii, mean ± SD. Here is the method:
The ergosterol level was determined using the method described by Breivik and Owades with adjustments according to [2]. C. krusei was inoculated with Sabouraud dextrose broth (Difco) supplemented with compounds 6e, 6k, 6r and the positive control, ketoconazole. The cultures were incubated, and the stationary-phase cells were harvested. After the addition of 25% alcoholic potassium hydroxide solution, cell suspensions were separated and incubated. Sterols were extracted by sterile distilled water and chloroform, and then the extract was injected into the LC-MS-MS system (Shimadzu LCMS 8040, Kyoto, Japan). The ergosterol quantity in the negative control samples was considered as 100%. All concentrations were analysed in quadruplicate, and the results were presented as mean ± standard deviation (SD).

The compound `O=C(CSc1nnc(CCSc2nnc(NC3CCCCC3)s2)o1)c1ccc([N+](=O)[O-])cc1` [Compound 6e, 2-[[5-[2-[[5-(Cyclohexylamino)-1,3,4-thiadiazol-2-yl]thio]ethyl]-1,3,4-oxadiazol-2-yl]thio]-1-(4-nitrophenyl)ethan-1-one] registered a melting point of 144 °C. The IC50 in the data set “MTT cytotoxicity test” was over 500 µg/mL. The “minimum inhibitory concentration (MIC), range over all tested fungi” value in the data set with four Candida species fell in the range of 0.78 to 3.12 µg/mL. Also, the MIC50 in the data set with C. glabrata (ATCC 90030) was 1.56 µg/mL (≈ 3.08 µM). In the data set with C. albicans (ATCC 24433), the MIC50 worked out at 1.56 µg/mL (≈ 3.08 µM). Besides, the MIC50 in data set [1] came out at 0.78 µg/mL (≈ 1.54 µM). Besides, the MIC50 with C. krusei (ATCC 6258) turned out to be 0.78 µg/mL (≈ 1.54 µM). In data set [2], this compound showed an inhibition at 0.78 µg/mL of 76.5 ± 3.67%, an inhibition at 1.56 µg/mL of 82.9 ± 4.72% and an inhibition at 3.12 µg/mL of 88.6 ± 4.52%.

Compound `O=C(CSc1nnc(CCSc2nnc(NC3CCCCC3)s2)o1)Nc1ccc([N+](=O)[O-])cc1` [Compound 6k, 2-[[5-[2-[[5-(Cyclohexylamino)-1,3,4-thiadiazol-2-yl]thio]ethyl]-1,3,4-oxadiazol-2-yl]thio]-N-(4-nitrophenyl)acetamide] had a melting point of 149 °C. Besides, the IC50 in “MTT cytotoxicity test” is over 500 µg/mL. Besides, in the data set on four Candida species, the “minimum inhibitory concentration (MIC), range over all tested fungi” value lay in the range of 0.78 to 3.12 µg/mL. For the same compound, the MIC50 in the data set with C. glabrata (ATCC 90030) was 1.56 µg/mL (≈ 2.99 µM). Moreover, the MIC50 in the data set with C. albicans (ATCC 24433) is 1.56 µg/mL (≈ 2.99 µM). Moreover, the MIC50 in data set [1] amounted to 1.56 µg/mL (≈ 2.99 µM). The MIC50 with C. krusei (ATCC 6258) is 1.56 µg/mL (≈ 2.99 µM). In data set [2], this compound came in with an inhibition at 0.78 µg/mL of 58.7 ± 2.41%, an inhibition at 1.56 µg/mL of 74.7 ± 3.26% and an inhibition at 3.12 µg/mL of 81.3 ± 4.19%.

In the case of `O=C(CSc1nnc(CCSc2nnc(NC3CCCCC3)s2)o1)Nc1nc2ccc([N+](=O)[O-])cc2s1` [Compound 6r, 2-[[5-[2-[[5-(Cyclohexylamino)-1,3,4-thiadiazol-2-yl]thio]ethyl]-1,3,4-oxadiazol-2-yl]thio]-N-(6-nitrobenzothiazol-2-yl)acetamide], the IC50 in the data set “MTT cytotoxicity test” stood at 406 ± 9.36 µg/mL (≈ 702 µM). The “minimum inhibitory concentration (MIC), range over all tested fungi” value with four Candida species lay within 0.78 to 3.12 µg/mL. Moreover, the MIC50 turned out to be 3.12 µg/mL (≈ 5.39 µM) in the data set with C. glabrata (ATCC 90030), 3.12 µg/mL (≈ 5.39 µM) with C. albicans (ATCC 24433), 1.56 µg/mL (≈ 2.7 µM) in data set [1] and 1.56 µg/mL (≈ 2.7 µM) in the data set on C. krusei (ATCC 6258). In data set [2], this compound had an inhibition at 0.78 µg/mL of 61.4 ± 1.88%. Further, in data set [2], the inhibition at 1.56 µg/mL was determined as 70.6 ± 4.23%. The inhibition at 3.12 µg/mL in data set [2] came out at 80.2 ± 3.7%.

Usually IC50 stands for the midpoint of a concentration-inhibition curve. By melting point is commonly meant the temperature of the solid-liquid transition. The inhibition is the relative decrease from the control value, in per cent.
